In ChEMBL document CHEMBL1154627, “Structure-activity relationship studies of targeting ligands against breast cancer cells” (J Med Chem, 2009):
Where a SMILES comes first, the peptide text is derived from it. Bridges are numbered along the chain shown (N, C = ends). [ ]: non-standard residue; d: D form. Tyr(3-NO2) = N[C@@H](Cc1ccc(O)c([N+](=O)[O-])c1)C(=O)O; Hyp = O=C(O)[C@@H]1C[C@@H](O)CN1

Experiment: Binding affinity to alpha3beta1 integrin receptor in human MDA-MB-231 cells assessed as inhibition of cell binding to immobilized LXY1 peptide by cell adherence assay
Assay type: cell-based

NC(=O)C[C@@H]1NC(=O)[C@@H]2C[C@@H](O)CN2C(=O)CNC(=O)[C@H](Cc2ccc(O)c(N)c2)NC(=O)CNC(=O)[C@@H](CC(=O)O)NC(=O)[C@H](N)CSSC[C@H](C(N)=O)NC1=O
IC50: > 25 µM

NC(=O)C[C@@H]1NC(=O)[C@@H]2C[C@@H](O)CN2C(=O)CNC(=O)[C@H](c2cccc([N+](=O)[O-])c2)NC(=O)CNC(=O)[C@@H](CC(=O)O)NC(=O)[C@H](N)CSSC[C@H](C(N)=O)NC1=O
IC50: 3.1 µM

NC(=O)C[C@@H]1NC(=O)[C@@H]2C[C@@H](O)CN2C(=O)CNC(=O)[C@H](Cc2ccc(O)c([N+](=O)[O-])c2)NC(=O)CNC(=O)[C@@H](CC(=O)O)NC(=O)[C@H](NCc2ccc(-c3ccccc3)cc2)CSSC[C@H](C(N)=O)NC1=O
IC50: > 25 µM

NC(=O)C[C@@H]1NC(=O)[C@@H]2C[C@@H](O)CN2C(=O)CNC(=O)[C@@H]2C=CCN2C(=O)CNC(=O)[C@@H](CC(=O)O)NC(=O)[C@H](N)CSSC[C@H](C(N)=O)NC1=O
IC50: 15.3 µM

COC(=O)c1ccc(NC(=O)N[C@@H]2CSSC[C@H](C(N)=O)NC(=O)[C@H](CC(N)=O)NC(=O)[C@@H]3C[C@@H](O)CN3C(=O)CNC(=O)[C@H](Cc3ccc(O)c([N+](=O)[O-])c3)NC(=O)CNC(=O)[C@@H](CC(=O)O)NC2=O)cc1
IC50: > 25 µM

NC(=O)C[C@@H]1NC(=O)[C@@H]2C[C@@H](O)CN2C(=O)CNC(=O)[C@H](Cc2ccc(O)c([N+](=O)[O-])c2)NC(=O)CNC(=O)[C@@H](CC(=O)O)NC(=O)[C@H](N)CSSC[C@H](C(N)=O)NC1=O (H-[dC][dD]G[Tyr(3-NO2)]G[Hyp]N[dC]-NH2; disulfide 1-8)
IC50: 7.4 µM

NC(=O)C[C@@H]1NC(=O)[C@@H]2C[C@@H](O)CN2C(=O)CNC(=O)[C@H](Cc2ccc(O)c([N+](=O)[O-])c2)NC(=O)CNC(=O)[C@@H](CC(=O)O)NC(=O)[C@H](NC(=O)Nc2ccc(C(F)(F)F)cc2)CSSC[C@H](C(N)=O)NC1=O
IC50: > 25 µM

NC(=O)C[C@@H]1NC(=O)[C@@H]2C[C@@H](O)CN2C(=O)CNC(=O)[C@H](Cc2ccc(O)c([N+](=O)[O-])c2)NC(=O)CNC(=O)[C@@H](CC(=O)O)NC(=O)[C@H](N)C/C=C/C[C@H](C(N)=O)NC1=O
IC50: > 25 µM

NC(=O)C[C@@H]1NC(=O)[C@@H]2C[C@@H](O)CN2C(=O)CNC(=O)[C@H](c2ccc(C(F)(F)F)cc2)NC(=O)CNC(=O)[C@@H](CC(=O)O)NC(=O)[C@H](N)CSSC[C@H](C(N)=O)NC1=O
IC50: > 25 µM

N#Cc1cccc([C@@H]2NC(=O)CNC(=O)[C@@H](CC(=O)O)NC(=O)[C@H](N)CSSC[C@H](C(N)=O)NC(=O)[C@H](CC(N)=O)NC(=O)[C@@H]3C[C@@H](O)CN3C(=O)CNC2=O)c1
IC50: > 25 µM

NC(=O)C[C@@H]1NC(=O)[C@@H]2C[C@@H](O)CN2C(=O)CNC(=O)[C@H](Cc2ccc(O)c([N+](=O)[O-])c2)NC(=O)CNC(=O)[C@@H](CC(=O)O)NC(=O)[C@H](NC(=O)NC2CCCCC2)CSSC[C@H](C(N)=O)NC1=O
IC50: > 25 µM

NC(=O)C[C@@H]1NC(=O)[C@@H]2C[C@@H](O)CN2C(=O)CNC(=O)[C@H](Cc2ccc(O)c([N+](=O)[O-])c2)NC(=O)CNC(=O)[C@@H](CC(=O)O)NC(=O)[C@H](NC(=O)Nc2ccccc2)CSSC[C@H](C(N)=O)NC1=O
IC50: > 25 µM

CC1(C)SSC(C)(C)[C@H](C(N)=O)NC(=O)[C@H](CC(N)=O)NC(=O)[C@@H]2C[C@@H](O)CN2C(=O)CNC(=O)[C@H](Cc2ccc(O)c([N+](=O)[O-])c2)NC(=O)CNC(=O)[C@@H](CC(=O)O)NC(=O)[C@@H]1N
IC50: > 25 µM

NC(=O)C[C@@H]1NC(=O)[C@@H]2C[C@@H](O)CN2C(=O)CNC(=O)[C@@H]2CCCCN2C(=O)CNC(=O)[C@@H](CC(=O)O)NC(=O)[C@H](N)CSSC[C@H](C(N)=O)NC1=O
IC50: 24.1 µM

NC(=O)C[C@@H]1NC(=O)[C@@H]2C[C@@H](O)CN2C(=O)CNC(=O)[C@H](Cc2ccc(O)c([N+](=O)[O-])c2)NC(=O)CNC(=O)[C@@H](CC(=O)O)NC(=O)[C@H](NCC2CCCCC2)CSSC[C@H](C(N)=O)NC1=O
IC50: > 25 µM

NC(=O)C[C@@H]1NC(=O)[C@@H]2C[C@@H](O)CN2C(=O)CNC(=O)[C@H](Cc2ccc(O)c([N+](=O)[O-])c2)NC(=O)CNC(=O)[C@@H](CC(=O)O)NC(=O)[C@H](NCc2ccc(F)c(F)c2)CSSC[C@H](C(N)=O)NC1=O
IC50: > 25 µM

NC(=O)C[C@@H]1NC(=O)[C@@H]2C[C@@H](O)CN2C(=O)CNC(=O)[C@H](c2ccccc2Cl)NC(=O)CNC(=O)[C@@H](CC(=O)O)NC(=O)[C@H](N)CSSC[C@H](C(N)=O)NC1=O
IC50: 19 µM

NC(=O)C[C@@H]1NC(=O)[C@@H]2C[C@@H](O)CN2C(=O)CNC(=O)[C@H](c2c(F)c(F)c(F)c(F)c2F)NC(=O)CNC(=O)[C@@H](CC(=O)O)NC(=O)[C@H](N)CSSC[C@H](C(N)=O)NC1=O
IC50: 11.7 µM

NC(=O)C[C@@H]1NC(=O)[C@@H]2C[C@@H](O)CN2C(=O)CNC(=O)[C@@H]2CCN2C(=O)CNC(=O)[C@@H](CC(=O)O)NC(=O)[C@H](N)CSSC[C@H](C(N)=O)NC1=O
IC50: 21.4 µM

NC(=O)C[C@@H]1NC(=O)[C@@H]2C[C@@H](O)CN2C(=O)CNC(=O)[C@H](Cc2ccc(O)c(I)c2)NC(=O)CNC(=O)[C@@H](CC(=O)O)NC(=O)[C@H](N)CSSC[C@H](C(N)=O)NC1=O
IC50: > 25 µM

CCCCNC(=O)N[C@@H]1CSSC[C@H](C(N)=O)NC(=O)[C@H](CC(N)=O)NC(=O)[C@@H]2C[C@@H](O)CN2C(=O)CNC(=O)[C@H](Cc2ccc(O)c([N+](=O)[O-])c2)NC(=O)CNC(=O)[C@@H](CC(=O)O)NC1=O
IC50: > 25 µM

NC(=O)C[C@@H]1NC(=O)[C@@H]2C[C@@H](O)CN2C(=O)CNC(=O)[C@H](Cc2ccc(O)c(Cl)c2)NC(=O)CNC(=O)[C@@H](CC(=O)O)NC(=O)[C@H](N)CSSC[C@H](C(N)=O)NC1=O
IC50: 19.8 µM

NC(=O)C[C@@H]1NC(=O)[C@@H]2C[C@@H](O)CN2C(=O)CNC(=O)[C@H](Cc2cc(I)c(O)c(I)c2)NC(=O)CNC(=O)[C@@H](CC(=O)O)NC(=O)[C@H](N)CSSC[C@H](C(N)=O)NC1=O
IC50: > 25 µM

NCC[C@@H]1NC(=O)[C@@H]2C[C@@H](O)CN2C(=O)CNC(=O)[C@H](Cc2ccc(O)c([N+](=O)[O-])c2)NC(=O)CNC(=O)[C@@H](CC(=O)O)NC(=O)[C@H](N)CSSC[C@H](C(N)=O)NC1=O
IC50: 13.6 µM

NC(=O)C[C@@H]1NC(=O)[C@@H]2C[C@@H](O)CN2C(=O)CNC(=O)[C@H](Cc2cc([N+](=O)[O-])c(O)c([N+](=O)[O-])c2)NC(=O)CNC(=O)[C@@H](CC(=O)O)NC(=O)[C@H](N)CSSC[C@H](C(N)=O)NC1=O
IC50: 11.9 µM

CCCCCCN[C@@H]1CSSC[C@H](C(N)=O)NC(=O)[C@H](CC(N)=O)NC(=O)[C@@H]2C[C@@H](O)CN2C(=O)CNC(=O)[C@H](Cc2ccc(O)c([N+](=O)[O-])c2)NC(=O)CNC(=O)[C@@H](CC(=O)O)NC1=O
IC50: > 25 µM

NC(=O)C[C@@H]1NC(=O)[C@@H]2C[C@@H](O)CN2C(=O)CNC(=O)[C@H](c2ccccc2[N+](=O)[O-])NC(=O)CNC(=O)[C@@H](CC(=O)O)NC(=O)[C@H](N)CSSC[C@H](C(N)=O)NC1=O
IC50: 19.6 µM

COc1cc(C[C@@H]2NC(=O)CNC(=O)[C@@H](CC(=O)O)NC(=O)[C@H](N)CSSC[C@H](C(N)=O)NC(=O)[C@H](CC(N)=O)NC(=O)[C@@H]3C[C@@H](O)CN3C(=O)CNC2=O)ccc1O
IC50: > 25 µM

CCCCCCN(CCCCCC)[C@@H]1CSSC[C@H](C(N)=O)NC(=O)[C@H](CC(N)=O)NC(=O)[C@@H]2C[C@@H](O)CN2C(=O)CNC(=O)[C@H](Cc2ccc(O)c([N+](=O)[O-])c2)NC(=O)CNC(=O)[C@@H](CC(=O)O)NC1=O
IC50: > 25 µM

NC(=O)C[C@@H]1NC(=O)[C@@H]2C[C@@H](O)CN2C(=O)CNC(=O)[C@H](CCc2ccc(O)cc2)NC(=O)CNC(=O)[C@@H](CC(=O)O)NC(=O)[C@H](N)CSSC[C@H](C(N)=O)NC1=O
IC50: > 25 µM

CC(C)NC(=O)N[C@@H]1CSSC[C@H](C(N)=O)NC(=O)[C@H](CC(N)=O)NC(=O)[C@@H]2C[C@@H](O)CN2C(=O)CNC(=O)[C@H](Cc2ccc(O)c([N+](=O)[O-])c2)NC(=O)CNC(=O)[C@@H](CC(=O)O)NC1=O
IC50: > 25 µM

NC(=O)C[C@@H]1NC(=O)[C@@H]2C[C@@H](O)CN2C(=O)CNC(=O)[C@H](Cc2ccc(O)c([N+](=O)[O-])c2)NC(=O)CNC(=O)[C@@H](CC(=O)O)NC(=O)[C@@H](N)CCCCNC1=O
IC50: > 25 µM

NC(=O)C[C@@H]1NC(=O)[C@@H]2C[C@@H](O)CN2C(=O)CNC(=O)[C@@H]2CCCN2C(=O)CNC(=O)[C@@H](CC(=O)O)NC(=O)[C@H](N)CSSC[C@H](C(N)=O)NC1=O
IC50: 16.9 µM

CC(C)CN[C@@H]1CSSC[C@H](C(N)=O)NC(=O)[C@H](CC(N)=O)NC(=O)[C@@H]2C[C@@H](O)CN2C(=O)CNC(=O)[C@H](Cc2ccc(O)c([N+](=O)[O-])c2)NC(=O)CNC(=O)[C@@H](CC(=O)O)NC1=O
IC50: > 25 µM

NC(=O)C[C@@H]1NC(=O)[C@@H]2C[C@@H](O)CN2C(=O)CNC(=O)[C@@H]2C[C@@H](c3ccccc3)CN2C(=O)CNC(=O)[C@@H](CC(=O)O)NC(=O)[C@H](N)CSSC[C@H](C(N)=O)NC1=O
IC50: > 25 µM

NC(=O)C[C@@H]1NC(=O)[C@@H]2C[C@@H](O)CN2C(=O)CNC(=O)[C@H](c2cccc(C(F)(F)F)c2)NC(=O)CNC(=O)[C@@H](CC(=O)O)NC(=O)[C@H](N)CSSC[C@H](C(N)=O)NC1=O
IC50: 11.9 µM

NC(=O)C[C@@H]1NC(=O)[C@@H]2C[C@@H](O)CN2C(=O)CNC(=O)[C@H](c2ccc(F)cc2)NC(=O)CNC(=O)[C@@H](CC(=O)O)NC(=O)[C@H](N)CSSC[C@H](C(N)=O)NC1=O
IC50: 23.7 µM

NC(=O)C[C@@H]1NC(=O)[C@@H]2C[C@@H](O)CN2C(=O)CNC(=O)[C@H](Cc2ccc(O)c([N+](=O)[O-])c2)NC(=O)CNC(=O)[C@@H](CC(=O)O)NC(=O)[C@H](NCc2cccnc2)CSSC[C@H](C(N)=O)NC1=O
IC50: > 25 µM

NC(=O)C[C@@H]1NC(=O)[C@@H]2C[C@@H](O)CN2C(=O)CNC(=O)[C@H](Cc2ccc(O)c([N+](=O)[O-])c2)NC(=O)CNC(=O)[C@@H](CC(=O)O)NC(=O)[C@H](NC(=O)Nc2ccc(-c3ccccc3)cc2)CSSC[C@H](C(N)=O)NC1=O
IC50: > 25 µM

NC(=O)C[C@@H]1NC(=O)[C@@H]2C[C@@H](O)CN2C(=O)CNC(=O)[C@H](c2ccc(F)c(F)c2)NC(=O)CNC(=O)[C@@H](CC(=O)O)NC(=O)[C@H](N)CSSC[C@H](C(N)=O)NC1=O
IC50: 6.3 µM
